Measured values reported in patent publication US8501911B2, “Methods of reducing inflammation and mucus hypersecretion” (Biomarck Pharmaceuticals, Ltd, priority 1999, dated 2013).
Several values for one entry are separate records, joined by “and”; a condition that tells them apart may be missing. Equal values may be shown once. Residues, ends and D or L forms follow the SMILES beside them. *: point of attachment. Myristoyl = CCCCCCCCCCCCCC(=O)*

What was measured:
human neutrophils [1] = assay: MPO secretion from isolated human neutrophils stimulated with PMA+8-Br-cGMP; format: cell-based
Method: MPO Colorimetric Enzyme Assay—Samples were assayed for MPO activity in 96 well round bottom microtiter plates using a sandwich ELISA kit (R & D Systems, Minneapolis, Minn.). Briefly, 20 microliters of sample is mixed with 180 microliters of substrate mixture containing 33 mM potassium phosphate, pH 6.0, […], 0.11 mM hydrogen peroxide, and 0.36 mM O-Diannisidine Dihydrochloride in an individual microtiter well. The final concentrations in the assay mixture are: 30 mM potassium phosphate, pH 6.0, 0.05% Triton X-100, 0.1 mM hydrogen peroxide, and 0.32 mM O-Diannisidine Dihydrochloride. […] Samples were assayed in duplicate.

human neutrophils [2] = assay: Inhibition of release of myeloperoxidase (MPO) from PMA-stimulated human neutrophils; format: cell-based; conditions: at 100 μM of test peptide; 100 nM PMA
Text: Human neutrophil isolation: Human neutrophils were isolated according to a slightly modified method previously described by Akasaki T, Koga H, and Sumimoto H., Phosphoinositide 3-kinase-dependent and -independent activation of the small GTPase Rac2 in human neutrophils, J. Biol. Chem. 274:18055-18059, 1999. Alternatively, human neutrophils were isolated as previously described (see Takashi S, OkuboY, Horie S. Contribution of CD54 to human eosinophil and neutrophil superoxide production. J. Appl. Physiol. 91:613-622, 2001) with slight modifications. Briefly, heparinized venous blood was obtained from normal healthy human volunteers, diluted with RPMI-1640 (Cellgro; Mediatech, Inc., Herndon, Va.) at a ratio of 1:1, layered onto a Histopaque (density, 1.077 g/ml; Sigma-Aldrich Co., St. Louis, Mo.), and centrifuged at 400 g for 20 min at 4° C. The supernatant and mononuclear cells at the interface were carefully removed, and erythrocytes in the sediment were lysed in chilled distilled water. Isolated granulocytes were washed twice with Hanks' balanced salts solution (HBSS) and resuspended in HBSS on ice. The neutrophils used for the experiments were of >98% purity with <2% contamination by eosinophils, and the viability was >99% as determined by Trypan blue dye exclusion.
Measurement of released MPO activity: Purified human neutrophils suspended in HBSS were aliquoted at 4×10^6 cells/ml in 15 ml tubes and preincubated with either 50 or 100 μM of test peptide (dissolved in PBS, pH 7.0) for 10 min at 37° C. […] Secretions were quantified by using as a standard, human MPO.
MPO activity in the cell supernatant was assayed using tetramethylbenzidine (TMB) based on a previously established technique (Paige L, Mahmudi-Azer S, Bablitz B, Hage S C, Velazquez J R, Man S F P, and Moqbel R. Rapid Mobilization of intracellularly stored RANTES in response to Interferon-γ in human eosinophils. Blood, 94:23-32, 1999). […] The reaction was terminated by addition of 50 μl of 1M H2SO4 and absorbance was read at 450 nm in a spectrophotometric microplate reader (Molecular Devices, Sunnyvale, Calif.).

[3] = system: ozone-induced neutrophil migration into the airways; assay: Mouse model of ozone-induced COPD (BAL analysis); format: in vivo; conditions: for % Neutrophils found in BAL fluid: intratracheal 1.0 mM peptide 30 min before ozone 2 hours (PBS + Ozone 21.4); for IFNγ in BAL fluid: peptide pretreatment then ozone (PBS + ozone approx. 18); for IL-6 in BAL fluid: peptide pretreatment then ozone (PBS + ozone approx. 197); for KC in BAL fluid: peptide pretreatment then ozone (PBS + ozone approx. 240); for % Inhibition of neutrophil migration into BAL fluid: relative to control group treated with PBS
Method: Ten-week-old Balb/C female mice were obtained from Charles River laboratories and housed under NIH guidelines in groups of 5 per cage. The animals received standard rodent diet and filtered water ad libitum. Three treatment groups of mice, 5 animals in each group, were each anesthetized by intraperitoneal injection of Ketamine (100 mg/kg) and Xylazine (20 mg/kg) and then pretreated by intratracheal administration with […] of either PBS alone, or a solution of 1.0 mM MANS peptide in PBS, or a solution of a 1.0 mM of a MANS-fragment-peptide designated as SEQ ID NO: 15 (MA-GAQFSKTAAK) in PBS. After 30 minutes, the animals were then placed in the appropriate custom-made chamber for ozone or forced air exposures. The animals were exposed to ozone for 2 hours (at ozone concentrations of 1-10 ppm by a slightly modified method described by Haddad et al, 1995. (Haddad E-B, Salmon M, Sun J, Liu S, Das A, Adcock I, Barnes P J, and Chung K F, FEBS Letters, 363:285-288, 1995). The ozone was generated using an ozone generator apparatus model OL80F/B from OzoneLab, Burton, British Columbia, Canada. Ozone concentration was continuously monitored using a Teledyne Photometric O3 Analyzer (model 400E, Teledyne Instruments, City of Industry, Calif.). Two additional groups of mice, each without any pretreatment, were either exposed to ozone under the same conditions or exposed to forced air under conditions similar to the ozone treatment group but absent ozone. After exposure, the animals were sacrificed by exsanguination and the lungs were serially lavaged 2 times with 1.0 mL aliquots of PBS. The collected bronchoalveolar lavage (BAL) fluid was centrifuged to remove the cells for subsequent counting and differential analysis. Recovered lavage fluid was used for protein and additional analysis of IL-6, IFNγ, and KC (murine IL-8 analog) by ELISA assay (assay kits obtained from R&D Systems, Minneapolis, Minn.).

[4] = peptide 1 μM + 100 nM PMA+10 μM 8-Br-cGMP, unstimulated control 0.076
[5] = peptide 10 μM + 100 nM PMA+10 μM 8-Br-cGMP
[6] = peptide 100 μM + 100 nM PMA+10 μM 8-Br-cGMP

SMILES	Absorbance at 450 nm (MPO secretion) (human neutrophils [1]; [4])	Absorbance at 450 nm (MPO secretion) (human neutrophils [1]; [5])	Absorbance at 450 nm (MPO secretion) (human neutrophils [1]; [6])	% Inhibition MPO (human neutrophils [2]) [%]	Diminished IL-6 levels (inhibition) vs. PBS control ([3]; after ozone exposure)	Effect on interferon-γ levels ([3]; after ozone exposure)	Reduced neutrophil cell infiltration in the BAL fluid vs. PBS control ([3]; after ozone exposure)	Diminished IL-6 levels (inhibition) vs. PBS control ([3]; after ozone exposure, listed as MANS)	% Neutrophils found in BAL fluid [3] [%]	IFNγ in BAL fluid [3]	IL-6 in BAL fluid [3]	KC in BAL fluid [3]	% Inhibition of neutrophil migration into BAL fluid [3] [%]	Diminished KC concentrations (inhibition) vs. PBS control ([3]; after ozone exposure)
CCCCCCCCCCCCCC(=O)NCC(=O)N[C@@H](C)C(=O)N[C@@H](CCC(N)=O)C(=O)N[C@@H](Cc1ccccc1)C(=O)N[C@@H](CO)C(=O)N[C@@H](CCCCN)C(=O)N[C@H](C(=O)N[C@@H](C)C(=O)N[C@@H](C)C(=O)N[C@@H](CCCCN)C(=O)NCC(=O)N[C@@H](CCC(=O)O)C(=O)N[C@@H](C)C(=O)N[C@@H](C)C(=O)N[C@@H](C)C(=O)N[C@@H](CCC(=O)O)C(=O)N[C@@H](CCCNC(=N)N)C(=O)N1CCC[C@H]1C(=O)NCC(=O)N[C@@H](CCC(=O)O)C(=O)N[C@@H](C)C(=O)N[C@@H](C)C(=O)N[C@H](C(=O)N[C@@H](C)C(=O)O)C(C)C)[C@@H](C)O [MANS peptide] (Myristoyl-GAQFSKTAAKGEAAAERPGEAAVA-OH; C-terminus assumed)	0.102	0.093	0.068	31.2	approximately 85%	little effect	93%±5%	88%±8%	1.5	approximately 13 pg/ml	approximately 23 pg/ml	approximately 60 pg/ml	93.0	
CCCCCCCCCCCCCC(=O)NCC(=O)N[C@H](C(=O)N[C@@H](C)C(=O)N1CCC[C@H]1C(=O)N[C@@H](C)C(=O)N[C@@H](C)C(=O)N[C@@H](CCC(=O)O)C(=O)NCC(=O)N[C@@H](C)C(=O)NCC(=O)N[C@@H](C)C(=O)N[C@@H](CCC(=O)O)C(=O)N[C@H](C(=O)N[C@@H](CCCCN)C(=O)N[C@@H](CCCNC(=N)N)C(=O)N[C@@H](C)C(=O)N[C@@H](CO)C(=O)N[C@@H](C)C(=O)N[C@@H](CCC(=O)O)C(=O)N[C@@H](C)C(=O)N[C@@H](CCCCN)C(=O)N[C@@H](CCC(N)=O)C(=O)N[C@@H](C)C(=O)N[C@@H](Cc1ccccc1)C(=O)O)C(C)C)[C@@H](C)O [RNS peptide, reference compound] (Myristoyl-GTAPAAEGAGAEVKRASAEAKQAF-OH; C-terminus assumed)	0.099	0.100	0.100	0										
CCCCCCCCCCCCCC(=O)NCC(=O)N[C@@H](C)C(=O)N[C@@H](CCC(N)=O)C(=O)N[C@@H](Cc1ccccc1)C(=O)N[C@@H](CO)C(=O)N[C@@H](CCCCN)C(=O)N[C@H](C(=O)N[C@@H](C)C(=O)N[C@@H](C)C(=O)N[C@@H](CCCCN)C(=O)NCC(=O)N[C@@H](CCC(=O)O)C(=O)O)[C@@H](C)O [SEQ ID NO: 13, N-myristoyl-GAQFSKTAAKGE] (Myristoyl-GAQFSKTAAKGE-OH; C-terminus assumed)				43.2										
CCCCCCCCCCCCCC(=O)NCC(=O)N[C@@H](C)C(=O)N[C@@H](CCC(N)=O)C(=O)N[C@@H](Cc1ccccc1)C(=O)N[C@@H](CO)C(=O)N[C@@H](CCCCN)C(=O)N[C@H](C(=O)N[C@@H](C)C(=O)N[C@@H](C)C(=O)N[C@@H](CCCCN)C(=O)O)[C@@H](C)O [SEQ ID NO: 15, N-myristoyl-GAQFSKTAAK] (Myristoyl-GAQFSKTAAK-OH; C-terminus assumed)					75%±8% and ~75%	little effect	47.7%±5%		11.2	approximately 9 pg/ml	approximately 49 pg/ml	approximately 147 pg/ml	47.7	38%±5% and ~40%
